Test results from patent US20230085307A1, “PYRIDAZINONE COMPOUND AND HERBICIDE” (NISSAN CHEMICAL CORPORATION, priority 2019, published 2023).

Key:
[1] = system: false cleavers; assay: Test Example 4: herbicidal effect by soil treatment (Table 19, symbol Q); type: in vivo, false cleavers (Galium spurium); settings: amount of applied herbicide 320 g/ha
How it was run: (§1)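 Three weeks of greenhouse growth at 25° C. to 30° C. followed a uniform surface spray of water-diluted emulsion at a predetermined herbicide amount. Seeds had been sown beforehand under about 1.5 cm of sterilized diluvial soil. Grading followed criteria set out in an earlier test.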

[2] = system: velvetleaf; assay: Test Example 5: herbicidal effect by foliage application, plastic box (Table 20, symbol M); type: in vivo, velvetleaf (Abutilon theophrasti); settings: foliage application, 320 g/ha, three weeks after application
How it was run: (§2)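 Plants sown in sterilized diluvial soil and grown 14 days in a greenhouse at 25° C to 30° C, then sprayed on the foliage with the compound's emulsion diluted in water to a predetermined herbicide amount. Injury to weeds and crops scored three weeks after application on a visual rating scale.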

[3] = system: green foxtail; assay: Test Example 5: herbicidal effect by foliage application, plastic box (Table 20, symbol G); type: in vivo, green foxtail (Setaria viridis); settings: foliage application, 320 g/ha, three weeks after application
How it was run: as §2

[4] = system: chickweed; assay: Test Example 4: herbicidal effect by soil treatment (Table 19, symbol P); type: in vivo, common chickweed (Stellaria media); settings: amount of applied herbicide 320 g/ha
How it was run: as §1

[5] = system: lambsquarters; assay: Test Example 5: herbicidal effect by foliage application, plastic box (Table 20, symbol O); type: in vivo, lambsquarters (Chenopodium album); settings: foliage application, 320 g/ha, three weeks after application
How it was run: as §2

[6] = system: green foxtail; assay: Test Example 4: herbicidal effect by soil treatment (Table 19, symbol G); type: in vivo, green foxtail (Setaria viridis); settings: amount of applied herbicide 320 g/ha
How it was run: as §1

[7] = system: blackgrass; assay: Test Example 4: herbicidal effect by soil treatment (Table 19, symbol J); type: in vivo, blackgrass (Alopecurus myosuroides); settings: amount of applied herbicide 320 g/ha
How it was run: as §1

[8] = system: barnyard grass; assay: Test Example 4: herbicidal effect by soil treatment (Table 19, symbol H); type: in vivo, barnyard grass (Echinochloa crus-galli); settings: amount of applied herbicide 320 g/ha
How it was run: as §1

[9] = system: blackgrass; assay: Test Example 5: herbicidal effect by foliage application, plastic box (Table 20, symbol J); type: in vivo, blackgrass (Alopecurus myosuroides); settings: foliage application, 320 g/ha, three weeks after application
How it was run: as §2

[10] = system: rice flat sedge; assay: Test Example 3: herbicidal effect by foliage application, Wagner pot (Table 18, symbol E); type: in vivo, rice flat sedge (Cyperus iria); settings: amount of applied herbicide 320 g/ha
How it was run: (§3)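 Plants were sown in alluvial soil held under 0.1–0.5 cm standing water and grown 14 days in a greenhouse at 25–30 °C. An emulsifiable formulation, water-diluted to the set dose, was then sprayed onto the foliage, and effects were scored three weeks later using previously defined criteria.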

[11] = system: barnyard grass; assay: Test Example 3: herbicidal effect by foliage application, Wagner pot (Table 18, symbol H); type: in vivo, barnyard grass (Echinochloa crus-galli); settings: amount of applied herbicide 320 g/ha
How it was run: as §3

[12] = system: wild oat; assay: Test Example 5: herbicidal effect by foliage application, plastic box (Table 20, symbol I); type: in vivo, wild oat (Avena fatua); settings: foliage application, 320 g/ha, three weeks after application
How it was run: as §2

[13] = system: Chinese sprangletop; assay: Test Example 3: herbicidal effect by foliage application, Wagner pot (Table 18, symbol D); type: in vivo, chinese sprangletop (Leptochloa chinensis); settings: amount of applied herbicide 320 g/ha
How it was run: as §3

[14] = system: wild oat; assay: Test Example 4: herbicidal effect by soil treatment (Table 19, symbol I); type: in vivo, wild oat (Avena fatua); settings: amount of applied herbicide 320 g/ha
How it was run: as §1

[15] = system: Italian ryegrass; assay: Test Example 5: herbicidal effect by foliage application, plastic box (Table 20, symbol K); type: in vivo, Italian ryegrass (Lolium multiflorum); settings: foliage application, 320 g/ha, three weeks after application
How it was run: as §2

[16] = system: windgrass; assay: Test Example 4: herbicidal effect by soil treatment (Table 19, symbol L); type: in vivo, windgrass (Apera spica-venti); settings: amount of applied herbicide 320 g/ha
How it was run: as §1

[17] = system: windgrass; assay: Test Example 5: herbicidal effect by foliage application, plastic box (Table 20, symbol L); type: in vivo, windgrass (Apera spica-venti); settings: foliage application, 320 g/ha, three weeks after application
How it was run: as §2

[18] = system: persian speedwell; assay: Test Example 4: herbicidal effect by soil treatment (Table 19, symbol R); type: in vivo, Persian speedwell (Veronica persica); settings: amount of applied herbicide 320 g/ha
How it was run: as §1

[19] = system: lambsquarters; assay: Test Example 4: herbicidal effect by soil treatment (Table 19, symbol O); type: in vivo, lambsquarters (Chenopodium album); settings: amount of applied herbicide 320 g/ha
How it was run: as §1

[20] = system: southern crabgrass; assay: Test Example 4: herbicidal effect by soil treatment (Table 19, symbol F); type: in vivo, southern crabgrass (Digitaria ciliaris); settings: amount of applied herbicide 320 g/ha
How it was run: as §1

[21] = system: redroot pigweed; assay: Test Example 4: herbicidal effect by soil treatment (Table 19, symbol N); type: in vivo, redroot pigweed (Amaranthus retroflexus); settings: amount of applied herbicide 320 g/ha
How it was run: as §1

[22] = system: southern crabgrass; assay: Test Example 5: herbicidal effect by foliage application, plastic box (Table 20, symbol F); type: in vivo, southern crabgrass (Digitaria ciliaris); settings: foliage application, 320 g/ha, three weeks after application
How it was run: as §2

[23] = system: persian speedwell; assay: Test Example 5: herbicidal effect by foliage application, plastic box (Table 20, symbol R); type: in vivo, Persian speedwell (Veronica persica); settings: foliage application, 320 g/ha, three weeks after application
How it was run: as §2

[24] = system: barnyard grass; assay: Test Example 5: herbicidal effect by foliage application, plastic box (Table 20, symbol H); type: in vivo, barnyard grass (Echinochloa crus-galli); settings: foliage application, 320 g/ha, three weeks after application
How it was run: as §2

[25] = system: Italian ryegrass; assay: Test Example 4: herbicidal effect by soil treatment (Table 19, symbol K); type: in vivo, Italian ryegrass (Lolium multiflorum); settings: amount of applied herbicide 320 g/ha
How it was run: as §1

[26] = system: velvetleaf; assay: Test Example 4: herbicidal effect by soil treatment (Table 19, symbol M); type: in vivo, velvetleaf (Abutilon theophrasti); settings: amount of applied herbicide 320 g/ha
How it was run: as §1

Cc1nn(C)c(=O)c(-c2c(-c3ccc(F)cc3)oc3ccc(F)cc23)c1O [9-014]
Q: false cleavers, herbicidal effect grade [1]: 0 (Herbicidal rate of 5% or less (almost no effect))
herbicidal effect on velvetleaf (M) [2]: 3 (Herbicidal rate of 40% or more and less than 70%)
herbicidal effect on green foxtail (G) [3]: 4 (Herbicidal rate of 70% or more and less than 90%)
P: chickweed, herbicidal effect grade [4]: 5 (Herbicidal rate of 90% or more (almost completely withered))
herbicidal effect on lambsquarters (O) [5]: 4 (Herbicidal rate of 70% or more and less than 90%)
G: green foxtail, herbicidal effect grade [6]: 5 (Herbicidal rate of 90% or more (almost completely withered))
J: blackgrass, herbicidal effect grade [7]: 4 (Herbicidal rate of 70% or more and less than 90%)
H: barnyard grass, herbicidal effect grade [8]: 4 (Herbicidal rate of 70% or more and less than 90%)
herbicidal effect on blackgrass (J) [9]: 4 (Herbicidal rate of 70% or more and less than 90%)
Herbicidal effect on E (rice flat sedge), foliage application [10]: 5 (Herbicidal rate of 90% or more (almost completely withered))
Herbicidal effect on H (barnyard grass), foliage application [11]: 3 (Herbicidal rate of 40% or more and less than 70%)
herbicidal effect on wild oat (I) [12]: 3 (Herbicidal rate of 40% or more and less than 70%)
Herbicidal effect on D (Chinese sprangletop), foliage application [13]: 3 (Herbicidal rate of 40% or more and less than 70%)
I: wild oat, herbicidal effect grade [14]: 1 (Herbicidal rate of 5% or more and less than 20%)
herbicidal effect on Italian ryegrass (K) [15]: 5 (Herbicidal rate of 90% or more (almost completely withered))
L: windgrass, herbicidal effect grade [16]: 0 (Herbicidal rate of 5% or less (almost no effect))
herbicidal effect on windgrass (L) [17]: 4 (Herbicidal rate of 70% or more and less than 90%)
R: persian speedwell, herbicidal effect grade [18]: 4 (Herbicidal rate of 70% or more and less than 90%)
O: lambsquarters, herbicidal effect grade [19]: 3 (Herbicidal rate of 40% or more and less than 70%)
F: southern crabgrass, herbicidal effect grade [20]: 4 (Herbicidal rate of 70% or more and less than 90%)
N: redroot pigweed, herbicidal effect grade [21]: 5 (Herbicidal rate of 90% or more (almost completely withered))
herbicidal effect on southern crabgrass (F) [22]: 2 (Herbicidal rate of 20% or more and less than 40%)
herbicidal effect on persian speedwell (R) [23]: 5 (Herbicidal rate of 90% or more (almost completely withered))
herbicidal effect on barnyard grass (H) [24]: 4 (Herbicidal rate of 70% or more and less than 90%)
K: Italian ryegrass, herbicidal effect grade [25]: 5 (Herbicidal rate of 90% or more (almost completely withered))
M: velvetleaf, herbicidal effect grade [26]: 4 (Herbicidal rate of 70% or more and less than 90%)
